Measured values published in patent publication US20070173787A1, “Thin-film nitinol based drug eluting stent” (priority 2005, published 2007).

Experiments:
[1] = system: platelet deposition and thrombus formation on the stent surface; experiment: In vitro bovine blood loop model (In 111 labeled platelets); conditions: FIG. 83
Text: The anti-thrombotic efficacy of the above-described three configurations is illustrated in FIG. 83. FIG. 83 illustrates the anti-thrombotic properties of the sirolimus/cilostazol combination coatings described above in an in vitro bovine blood loop model. In the in vitro bovine blood loop model, fresh bovine blood is heparinized to adjust for acute clotting time (ACT) of about two hundred (200) seconds. The platelet content in the blood is labeled through the use of Indium 111. In the study, a stent is deployed in a silicone tube, which is part of a closed loop system for blood circulation. The heparinzed blood is circulated through the closed loop system by means of a circulating pump. Blood clots and thrombus builds up on a stent surface over time and reduces the flow rate of blood through the stented loop. […] The control drug eluting stent is the Cypher® sirolimus eluting coronary stent available from Cordis Corporation. Bar 8304 is a stent coated with heparin and is available from Cordis Corporation under the […]® on the Bx Velocity® coronary stent trademark. Bar 8306 is a stent configured as set forth with respect to the architecture illustrated in FIG. 76. Bar 8308 is a stent configured as set forth with respect to the architecture illustrated in FIG. 80. Bar 8310 is a stent configured as set forth with respect to the architecture illustrated in FIG. 82.

[2] = In vivo release kinetics from stent coatings in porcine pharmacokinetics studies; conditions: after eight (8) days of implantation; single layer sirolimus/cilostazol EVA/BMA coating with 100 μg BMA overcoat (FIG. 86), FIG. 84
Text: The topcoat is two hundred micro grams.
The basecoat is applied to Bx Velocity® stents and implanted into Yorkshire pigs.
Another critical parameter for the performance of the thrombus resistance of a device coated with cilostazol is the duration of the drug release from the coating. This is of particular significance in the two weeks after device implantation. […] The purpose of the porcine PK study is to assess the local pharmacokinetics of a drug eluting stent at a given implantation time. Normally three stents are implanted in three different coronary arteries in a pig for a given time point and then retrieved for total drug recovery analysis. The stents are retrieved at predetermined time points; namely, 1, 3 and 8 days. The stents are extracted and the total amount of drug remaining on the stents is determined by analysis utilizing HPLC (high performance liquid chromatography) for total drug amount. The difference between the original amount of drug on the stent and the amount of drug retrieved at a given time represents the amount of drug released in that period. The continuous release of drug into surrounding arterial tissue is what prevents the neointimal growth and restenosis in the coronary artery. A normal plot represents the percentage of total drug released (%, y-axis) vs. time of implantation (day, x-axis). […] In this exemplary configuration, the stent 8600 is coated with two layers. The first layer 8602 comprises a combination of sirolimus, cilostazol and a copolymer matrix of EVA/BMA. The second layer or diffusion overcoat 8604 comprises only BMA. More specifically, in this embodiment, the first layer 8602 comprises a combination of sirolimus and cilastazol that is forty-five (45) percent by weight of the total weight of the first layer 8602 and an EVA/BMA copolymer matrix that is fifty-five (55) percent by weight of the total weight of the first layer 8602. The diffusion overcoat comprises one hundred (100 μg) micrograms of BMA.
Pigs are an established animal species for intravascular stent studies and accepted for such studies by the appropriate regulatory agencies. This in vivo study utilized male pigs of the species Sus Scrofa and strain Yoorkshire pigs. S.M.A.R.T.™ stents, available from Cordis Corporation, were placed into the iliac and femoral arteries, PALMAZ® GENESIS™ stents, available from Cordis Corporation, were placed in the renal arteries and CYPHER™ stents, available from Cordis Corporation, were placed in the coronary arteries.

[3] = system: human coronary artery smooth muscle cells; experiment: Anti-proliferative activity in synchronized cultured human coronary artery smooth muscle cells stimulated with two percent fetal bovine serum; type: cell-based
Text: The multiple curves represent various concentrations of topotecan ranging from zero to three hundred nanomolar concentrations.
The multiple curves represent various concentrations of etoposide ranging from zero to eight hundred nanomolar concentrations.
The multiple curves represent various concentrations of Panzem® ranging from zero to 100 micromolar concentrations.

[4] = system: human coronary artery smooth muscle cell; conditions: concentrations up to 30,000.00 nanomolar, FIG. 69
Text: In vitro cytotoxicity tests or assays may be utilized to determine if drugs, agents and/or compounds are potentially toxic and the level of toxicity. Essentially, in vitro cytotoxicity assays determine acute necrotic effects by a drug causing direct cellular damage. The idea behind these assays is that toxic chemicals affect basic functions of cells which are common to all cells. […] There are a number of different assays that may be utilized. In the present invention, the cytotoxicity assay utilized is based upon the measurement of cellular metabolic activity. A reduction in metabolic activity is an indication of cellular damage. Tests that can measure metabolic function measure cellular ATP levels or mitochondrial activity via MTS metabolism. FIG. 69 is a graphical representation of the results of an MTS assay of Panzem®.

SMILES | thrombus formation [1] | drug remaining in the drug coating [2] [%] | anti-proliferative activity ([3]; FIG. 66) | effect of addition on the anti-proliferative rapamycin dose response curve ([3]; topotecan to 300 nanomolar (FIG. 64), etoposide to eight hundred nanomolar (FIG. 65), Panzem to 100 micromolar (FIG. 68)) | cytotoxicity, MTS assay (cell survival) [4]
O=C1CCc2cc(OCCCCc3nnnn3C3CCCCC3)ccc2N1 [cilostazol, 6[4-(1-cyclohexyl-1H-tetrazol-5-yl)-butoxy]-3,4-dihydro-2-(1H)-quinolinone] | significantly reduces thrombus formation | ~80 |  |  | 
COc1cc2c(cc1O)CC[C@@H]1[C@@H]2CC[C@]2(C)[C@@H](O)CC[C@@H]12 [Panzem®, 2-methoxyestradiol] |  |  | extremely effective inhibitor of human coronary artery smooth muscle cell proliferation in vitro | increases the percent of inhibition of rapamycin alone | do not reduce human coronary artery smooth muscle cell survival
